Data on one compound can be found in patent US20220151979A1, “COMPOSITION FOR PREVENTION OR TREATMENT OF CARDIOVASCULAR AND METABOLIC DISEASE COMPRISING NORANHYDROICARITIN” (SEOUL NATIONAL UNIVERSITY HOSPITAL, priority 2019, published 2022).

For data set [1], the system named is PPARγ. Kind of data set: PPARγ expression in HepG2 cells (RealTime-PCR, immunohistochemistry). The class given is cell-based, human. As to the method: In order to confirm the effect of increasing the expression of PPARα and PPARγ of noranhydroicaritin, PCR using PPARα primers and immunohistochemistry targeting PPARα and PPARγ were performed to confirm the expression levels.
Using cDNA synthesized with RNA according to the method of Example 4, the quantities of PPARα mRNA and PPARγ mRNA were confirmed through RealTime-PCR analysis. The group treated only with DMSO was used as a negative control. For immunohistochemistry, HepG2 cells were attached to a slide chamber, then treated with noranhydroicaritin at 20 μM, and incubated. After fixation with formalin, the HepG2 cells were stained with antibodies targeting PPARα and PPARγ, and treated with DAPI to stain nuclei, and the degree of fluorescent expression was confirmed using a confocal microscope.

Data set [2] has as its system PCSK9 promoter. The data set can be described thus: PCSK9 promoter-reporter luciferase assay in HEK293T cells. The class given is cell-based, human. The following applies: pGL4.14-PCSK9-transfected HEK293T cells, 2.5-20 μM, 18 hours. As to the method:
In order to confirm the PCSK9 gene expression inhibitory effect of noranhydroicaritin, HEK293T cells were treated with noranhydroicaritin at various concentrations, and it was confirmed whether the expression of PCSK9 was inhibited through a luciferase assay.
i) A primer was prepared to contain KpnI and XhoI restriction enzyme sites in the PCSK9 promoter gene region, and then PCR (polymerase chain reaction) and electrophoresis on an agarose gel were performed to isolate PCSK9 promoter region DNA. A pGL4.14-[luc2/Hygro] vector containing a firefly luciferase as a reporter gene was treated with the same restriction enzymes (KpnI and XhoI), and then isolated via agarose gel electrophoresis and gel extraction. […]
ii) In order to measure the transcriptional activity of the PCSK9 promoter gene, HEK293T cells were transfected with pGL4.14-PCSK9, and then the luciferase activity of the cell extract was measured. […]
iii) After 18 hours of incubation, cells were washed with PBS one time, an appropriate amount of luciferase reagent was added to each well, then the plate was shaken for 15 min, the supernatant was obtained, and the transcriptional activity was measured. Passive lysis buffer was used, and the luciferase activity was measured using a microplate luminometer (Tecan). […]

The subject of data set [3] is HepG2 cells. The data set can be described thus: MTT cell viability of HepG2 cells. The class given is cell-based, human. The protocol:
In order to confirm the toxicity of noranhydroicaritin to cells, HepG2 cells (human liver hepatocellular carcinoma) were treated with each of kaempferol and noranhydroicaritin at various concentrations, and the cell viability of HepG2 cells at each concentration was calculated through the MTT screening method.
Specifically, HepG2 cells were suspended in DMEM (Welgene Inc.) medium containing 10% fetal bovine serum at a concentration of 1×10^5 cells/mL, and 100 μL thereof was inoculated into each well of a 96-well plate. After 4 hours, the HepG2 cells in the well plate were treated with each of kaempferol and noranhydroicaritin samples at concentrations of 2.5 μM, 5 μM, 10 μM, and 20 μM. After incubation for 24 hours, 5 μL of MTT (5 mg/mL) was added to the well plate, and the cells were further incubated for 4 hours. Thereafter, the medium was removed, 100 μL of DMSO was added to the well plate, the reaction was conducted, and then the absorbance was measured at 570 nm. As a control, cholesterol synthesis inhibitors atorvastatin (Ato) and rosuvastatin (Ros) were used. The cell viability was calculated according to the following mathematical formula as a value relative to 100% of the value for the negative control treated only with DMSO. The results are illustrated in FIG. 1. […]

Data set [4] relates to atherosclerotic plaque. The data set can be described thus: Gross plaque imaging in PCSK9-injected mouse carotid-ligation arteriosclerosis model. The class given is in vivo. The following applies: AAV-PCSK9 virus, high-fat diet, 10 μg/g/day, 3 weeks after ligation, vehicle group about 45%. The protocol: By ligation to the carotid artery of 6- to 8-week-old mice, mechanical stress was applied to induce inflammation, thrombosis, oxidative stress, and shear stress, and the function and structure of the external carotid (EC) were changed to prepare an atherosclerosis model (FIG. 13). Specifically, ligation was performed on the left common carotid artery (LCA) after abdominal anesthesia by performing carotid artery ligation on mice fed a high-fat diet for one week. Partial ligation of three branches in the LCA, the external carotid artery (ECA), the internal carotid artery (ICA), and the occipital artery (OA) was performed. At this time, ICA and OA were ligated, and ECA was ligated separately. In mice subjected to ligation, the amount of blood flow to the heart decreased and the direction of blood flow changed, whereby an atherosclerosis model was prepared. Carotid artery ligation was performed one week after injection of AAV-PCSK9 Virus (1×10^11 IFU/mL) and noranhydroicaritin (10 μg/g/day). After 3 weeks of ligation, it was confirmed whether the atherosclerosis model was completed, and gross plaque imaging and immunofluorescence were performed to confirm the arteriosclerosis inhibitory effect of noranhydroicaritin.

One may read the cell viability as the share of living cells, or the viability signal relative to a control. Higher therefore signals better survival.

With `CC(C)=CCc1c(O)cc(O)c2c(=O)c(O)c(-c3ccc(O)cc3)oc12` [Noranhydroicaritin, noranhydroicaritin], in data set [1], the “expression of PPARγ” value is reported as “increased in a concentration-dependent manner”. Moreover, the PCSK9 luciferase activity entry in data set [2] is “decreased in a noranhydroicaritin concentration-dependent manner”. Further, the cell viability in data set [3] (20 μM, 24 hours, MTT, relative to DMSO negative control) was ≥ 90%. The “cell viability compared with control” value in data set [3] (same concentration as atorvastatin or rosuvastatin) is “higher than the cell viability of the cells treated with atorvastatin or rosuvastatin”. In data set [4], the atherosclerotic plaque-formed area result is “about 20%”.
